Results: PubChem BioAssay (NCI)
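Step 1: Grow cells in 96-well plates. Step 2: Expose to compound for 48 hours at 5 concentrations. Step 3: Interpolate endpoints linearly; if unreached, use highest concentration. GI50 marks 50% less growth. TGI: total growth inhibition.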

Tests used:
Test in all cases: inhibition of tumour cell growth, NCI panel, 48 h
[1] = test system: HOP-92 NSCLC
[2] = test system: KM12 colon
[3] = test system: RPMI-8226 leukemia
[4] = test system: HT29 colon
[5] = test system: SF-295 CNS
[6] = test system: 786-0 renal
[7] = test system: A498 renal
[8] = test system: SK-MEL-28 melanoma
[9] = test system: CAKI-1 renal
[10] = test system: T-47D breast
[11] = test system: OVCAR-3 ovarian
[12] = test system: MDA-MB-435
[13] = test system: IGROV1 ovarian
[14] = test system: LOX IMVI melanoma
[15] = test system: SK-OV-3 ovarian
[16] = test system: U251 CNS
[17] = test system: OVCAR-5 ovarian
[18] = test system: SW-620 colon
[19] = test system: SK-MEL-2 melanoma
[20] = test system: UACC-62 melanoma
[21] = test system: A549 NSCLC
[22] = test system: NCI-H226 lung
[23] = test system: DU-145 prostate
[24] = test system: MDA-MB-231 breast
[25] = test system: NCI-H460 lung
[26] = test system: NCI-H23 lung
[27] = test system: SNB-75 CNS
[28] = test system: ACHN renal
[29] = test system: NCI-H522 lung
[30] = test system: OVCAR-8 ovarian
[31] = test system: UO-31 renal
[32] = test system: OVCAR-4 ovarian
[33] = test system: SF-268 CNS
[34] = test system: BT-549 breast
[35] = test system: RXF 393 renal
[36] = test system: HS 578T breast
[37] = test system: MOLT-4 leukemia
[38] = test system: CCRF-CEM leukemia
[39] = test system: SK-MEL-5 melanoma
[40] = test system: PC-3 prostate
[41] = test system: HCT-15 colon
[42] = test system: UACC-257 melanoma
[43] = test system: NCI/ADR-RES ovarian
[44] = test system: HOP-62 NSCLC
[45] = test system: M14 melanoma
[46] = test system: COLO 205 colon
[47] = test system: HCT-116 colon
[48] = test system: MALME-3M melanoma
[49] = test system: SNB-19 CNS
[50] = test system: SN12C renal
[51] = test system: EKVX NSCLC
[52] = test system: SF-539 CNS
[53] = test system: TK-10 renal
[54] = test system: MCF7 breast
[55] = test system: HCC-2998 colon
[56] = test system: HL-60(TB) leukemia
[57] = test system: SR leukemia
[58] = test system: K-562 leukemia

O=C(O)c1cccc(/C=C/c2ccccc2)c1
TGI [1]: > 100 µM
TGI [2]: > 100 µM
TGI [3]: > 100 µM
TGI [4]: > 100 µM
TGI [5]: > 100 µM
TGI [6]: > 100 µM
TGI [7]: > 100 µM
TGI [8]: > 100 µM
TGI [9]: > 100 µM
TGI [10]: > 100 µM
TGI [11]: > 100 µM
TGI [12]: > 100 µM
TGI [13]: > 100 µM
TGI [14]: > 100 µM
TGI [15]: > 100 µM
TGI [16]: > 100 µM
TGI [17]: > 100 µM
TGI [18]: > 100 µM
TGI [19]: > 100 µM
TGI [20]: > 100 µM
TGI [21]: > 100 µM
TGI [22]: > 100 µM
TGI [23]: > 100 µM
TGI [24]: > 100 µM
TGI [25]: > 100 µM
TGI [26]: > 100 µM
TGI [27]: > 100 µM
TGI [28]: > 100 µM
TGI [29]: > 100 µM
TGI [30]: > 100 µM
TGI [31]: > 100 µM
TGI [32]: > 100 µM
TGI [33]: > 100 µM
TGI [34]: > 100 µM
TGI [35]: > 100 µM
TGI [36]: > 100 µM
TGI [37]: > 100 µM
TGI [38]: > 100 µM
TGI [39]: > 100 µM
TGI [40]: > 100 µM
TGI [41]: > 100 µM
TGI [42]: > 100 µM
TGI [43]: > 100 µM
TGI [44]: > 100 µM
TGI [45]: > 100 µM
TGI [46]: > 100 µM
TGI [47]: > 100 µM
TGI [48]: > 100 µM
TGI [49]: > 100 µM
TGI [50]: > 100 µM
TGI [51]: > 100 µM
TGI [52]: > 100 µM
TGI [53]: > 100 µM
TGI [54]: > 100 µM

COc1cc2c3c(ncc2c(OC)c1OC)-c1cc2c(cc1C3)OCO2
GI50 [1]: 61.1 µM
TGI [1]: > 100 µM
GI50 [2]: > 100 µM
TGI [2]: > 100 µM
GI50 [3]: 33.4 µM
TGI [3]: > 100 µM
GI50 [5]: 29.8 µM
TGI [5]: > 100 µM
GI50 [6]: 33.7 µM
TGI [6]: > 100 µM
GI50 [8]: 39.1 µM
TGI [8]: > 100 µM
GI50 [9]: 42.5 µM
TGI [9]: > 100 µM
GI50 [10]: 26.2 µM
TGI [10]: 89.8 µM
GI50 [55]: > 100 µM
TGI [55]: > 100 µM
GI50 [12]: > 100 µM
TGI [12]: > 100 µM
GI50 [15]: 21.6 µM
TGI [15]: 61.4 µM
GI50 [56]: 0.0288 µM
TGI [56]: 4.26 µM
GI50 [16]: 27.6 µM
TGI [16]: > 100 µM
GI50 [17]: 58.5 µM
TGI [17]: > 100 µM
GI50 [18]: 66.4 µM
TGI [18]: > 100 µM
GI50 [19]: 11.7 µM
TGI [19]: 45.3 µM
GI50 [20]: 22.4 µM
TGI [20]: 65.9 µM
GI50 [21]: 82.9 µM
TGI [21]: > 100 µM
GI50 [23]: 26.9 µM
TGI [23]: > 100 µM
GI50 [57]: 0.25 µM
TGI [57]: 17.6 µM
GI50 [24]: 11.5 µM
TGI [24]: 29.5 µM
GI50 [25]: > 100 µM
TGI [25]: > 100 µM
GI50 [58]: 4.27 µM
TGI [58]: 20.5 µM
GI50 [27]: > 100 µM
TGI [27]: > 100 µM
GI50 [28]: 20.7 µM
TGI [28]: 47.2 µM
GI50 [31]: 19.8 µM
TGI [31]: 68 µM
GI50 [32]: 54 µM
TGI [32]: > 100 µM
GI50 [36]: 13.3 µM
TGI [36]: 37.5 µM
GI50 [39]: 54.1 µM
TGI [39]: > 100 µM
GI50 [40]: > 100 µM
TGI [40]: > 100 µM
GI50 [41]: 32.6 µM
TGI [41]: > 100 µM
GI50 [43]: 36.9 µM
TGI [43]: > 100 µM
GI50 [45]: > 100 µM
TGI [45]: > 100 µM
GI50 [46]: > 100 µM
TGI [46]: > 100 µM
GI50 [47]: 22.1 µM
TGI [47]: 36.5 µM
GI50 [49]: 26.1 µM
TGI [49]: 55.6 µM
GI50 [51]: 17.2 µM
TGI [51]: 73.9 µM
GI50 [53]: 19.3 µM
TGI [53]: 46.5 µM
GI50 [54]: 15.6 µM
TGI [54]: 59 µM
